Reference: patent US6506766B1 (Abbott Laboratories, priority 1998, dated 2003)
Where two headings read alike, the source gives them in different places.

Experiments:
[1] = target: T1, human progesterone receptor-A [PRA] isoform (Homo sapiens, UniProt P06401); assay: Radioligand binding with human progesterone receptor cytosol ([3H]-progesterone competition); conditions: read-out: Ki (nM) PR
T1 construct: host or cells: insect SF21 cells (baculovirus)
T1 sequence (P06401 1-769 isoform P06401-2): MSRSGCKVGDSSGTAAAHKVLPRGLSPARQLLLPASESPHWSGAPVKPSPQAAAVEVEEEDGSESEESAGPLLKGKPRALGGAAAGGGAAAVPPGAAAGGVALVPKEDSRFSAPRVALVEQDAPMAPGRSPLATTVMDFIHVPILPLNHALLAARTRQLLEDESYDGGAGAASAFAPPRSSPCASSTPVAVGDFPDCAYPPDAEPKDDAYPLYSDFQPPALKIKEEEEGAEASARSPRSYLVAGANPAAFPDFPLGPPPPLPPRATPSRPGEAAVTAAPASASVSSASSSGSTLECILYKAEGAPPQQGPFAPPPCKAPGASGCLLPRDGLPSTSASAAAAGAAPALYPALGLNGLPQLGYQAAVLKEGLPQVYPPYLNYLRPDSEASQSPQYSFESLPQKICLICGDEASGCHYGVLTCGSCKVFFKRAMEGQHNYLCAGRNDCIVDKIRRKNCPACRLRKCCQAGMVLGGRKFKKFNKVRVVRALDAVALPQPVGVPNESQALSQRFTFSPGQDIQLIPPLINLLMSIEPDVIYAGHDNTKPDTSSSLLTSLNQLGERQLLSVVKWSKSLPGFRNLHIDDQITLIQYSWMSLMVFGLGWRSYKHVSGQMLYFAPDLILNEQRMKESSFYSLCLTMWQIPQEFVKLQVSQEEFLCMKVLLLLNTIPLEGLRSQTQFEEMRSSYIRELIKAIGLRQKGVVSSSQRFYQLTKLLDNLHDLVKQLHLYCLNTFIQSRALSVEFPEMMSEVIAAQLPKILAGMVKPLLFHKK

[2] = target: T2, human glucocorticoid receptor-α [GRX] isoform (Homo sapiens, UniProt P04150); assay: Radioligand binding with human glucocorticoid receptor cytosol ([3H]-dexamethasone competition); conditions: read-out: Ki (nM) GR
T2 construct: host or cells: insect SF21 cells (baculovirus)
T2 sequence (P04150 1-777): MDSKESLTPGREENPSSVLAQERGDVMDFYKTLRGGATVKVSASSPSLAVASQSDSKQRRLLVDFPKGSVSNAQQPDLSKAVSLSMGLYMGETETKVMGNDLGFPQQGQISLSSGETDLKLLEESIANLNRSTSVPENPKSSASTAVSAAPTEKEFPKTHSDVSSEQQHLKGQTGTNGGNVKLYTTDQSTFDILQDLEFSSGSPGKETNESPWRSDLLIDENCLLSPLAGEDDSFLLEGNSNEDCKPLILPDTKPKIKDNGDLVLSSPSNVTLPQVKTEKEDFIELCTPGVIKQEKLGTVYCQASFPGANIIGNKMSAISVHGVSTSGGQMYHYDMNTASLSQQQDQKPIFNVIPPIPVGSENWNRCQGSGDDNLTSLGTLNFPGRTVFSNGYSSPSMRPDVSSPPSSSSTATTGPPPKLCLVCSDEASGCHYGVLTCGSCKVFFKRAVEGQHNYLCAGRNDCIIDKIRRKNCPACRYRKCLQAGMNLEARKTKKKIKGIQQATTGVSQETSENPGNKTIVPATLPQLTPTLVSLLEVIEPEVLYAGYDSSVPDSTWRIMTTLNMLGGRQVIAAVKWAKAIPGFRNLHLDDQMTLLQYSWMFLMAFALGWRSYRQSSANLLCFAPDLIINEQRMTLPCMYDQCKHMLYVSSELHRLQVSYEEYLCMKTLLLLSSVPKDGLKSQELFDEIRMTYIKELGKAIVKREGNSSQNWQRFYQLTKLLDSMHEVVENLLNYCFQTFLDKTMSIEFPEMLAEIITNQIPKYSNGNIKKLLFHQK

[3] = PRA cytosol expressed in insect SF21 cells, [3H]Prog ~0.8 nM, 4° C. overnight, Ki by Cheng-Prusoff, KL ~4.5 nM
[4] = GRX cytosol expressed in insect SF21 cells, [3H]-Dex ~0.9 nM, 4° C. overnight, Ki by Cheng-Prusoff, KL ~[…]

| Molecule | Ki [1, 3] [nM] | melting point [°C] | Ki [2, 4] [nM] | Ki [1] [nM] | Ki [2] [nM] |
| --- | --- | --- | --- | --- | --- |
| COc1cccc2c1-c1ccc3c(c1C(CC=C1CCCCC1)O2)C(C)=CC(C)(C)N3 (stereo not shown) [Example 187, 2,5-Dihydro-10-methoxy-5-(2-cyclohexylidenylethyl)-2,2,4-trimethyl-1H-[1]benzopyrano[3,4-f]quinoline] | 3900 | 130 to 135 | 46 | – | – |
| COc1cccc2c1-c1ccc3c(c1C(CNC(=O)OC(C)(C)C)O2)C(C)=CC(C)(C)N3 (stereo not shown) [Example 206] | ≥ 10000 | 130 to 135 | 201 | – | – |
| COC(=O)c1cccc2c1-c1ccc3c(c1C(c1ccccc1)O2)C(C)=CC(C)(C)N3 (stereo not shown) [Example 335, Methyl 2,5-Dihydro-5-phenyl-2,2,4-trimethyl-1H-[1]benzopyrano[3,4-f]quinoline-10-carboxylate] | ≥ 10000 | 150 to 152 | 652 | – | – |
| C=Cc1cccc2oc(=O)c3c4c(ccc3c12)NC(C)(C)C=C4C [Example 339, 2,5-Dihydro-10-ethenyl-5-oxo-2,2,4-trimethyl-1H-[1]benzopyrano[3,4-f]quinoline] | ≥ 10000 | 218 to 224 | 112 | – | – |
| C=Cc1cccc2c1-c1ccc3c(c1C(C1(C)CC=CCC1)O2)C(C)=CC(C)(C)N3 (stereo not shown) [Example 341, 2,5-Dihydro-10-ethenyl-5-[1-methyl-3-cyclohexenyl]-2,2,4-trimethyl-1H-[1]benzopyrano[3,4-f]quinoline] | – | 198 to 201 | – | – | – |
| C=CCC1Oc2ccc(OCSC)c(OC)c2-c2ccc3c(c21)C(C)=CC(C)(C)N3 (stereo not shown) [Example 436, 2,5-Dihydro-9-methylthiomethoxy-10-methoxy-2,2,4-trimethyl-5-allyl-1H-[1]benzopyrano[3,4-f]quinoline] | 5920 | – | 18.8 | – | – |
| C=CCC1Oc2ccc(OC(=O)CCCC(=O)N(CC)CC)c(OC)c2-c2ccc3c(c21)C(C)=CC(C)(C)N3 (stereo not shown) [Example 437] | 449 | – | 0.97 | – | – |
| C=CCC1Oc2ccc(OC(=O)CCCC(=O)N(C)C)c(OC)c2-c2ccc3c(c21)C(C)=CC(C)(C)N3 (stereo not shown) [Example 438] | 129 | – | 0.89 | – | – |
| C=CCC1Oc2ccc(OC(=O)CCCC(=O)N3CCCCC3)c(OC)c2-c2ccc3c(c21)C(C)=CC(C)(C)N3 (stereo not shown) [Example 439] | 202 | – | 1.2 | – | – |
| C=CCC1Oc2ccc(OC(=O)CCCC(=O)N3CCOCC3)c(OC)c2-c2ccc3c(c21)C(C)=CC(C)(C)N3 (stereo not shown) [Example 440] | 390 | – | 0.7 | – | – |
| COc1c(OC(=O)CCC(=O)N(C)C)ccc2c1-c1ccc3c(c1[C@H]([C@@H]1C=CCC1)O2)C(C)=CC(C)(C)N3 [Example 441, (−)2,5-Dihydro-9-(4-N,N-dimethylamino-4-oxo-butanoyloxy)-10-methoxy-2,2,4-trimethyl-5(S)-(3(S)-1-cyclopenten-3-yl)-1H-[1]benzopyrano[3,4-f]quinoline] | 328 | – | 0.42 | – | – |
| C=CCNC(=O)Oc1ccc2c(c1OC)-c1ccc3c(c1C(CC=C)O2)C(C)=CC(C)(C)N3 (stereo not shown) [Example 442, 10-Methoxy-9-(allylaminocarbonyl)oxy-5-(3-propenyl)-2,2,4-trimethyl-1H-2,5-dihydro-[1]benzopyrano[3,4-f]quinoline] | – | – | – | 8860 | 9.1 |
| C=CCC1Oc2ccc(OC(=O)NC3CCCCC3)c(OC)c2-c2ccc3c(c21)C(C)=CC(C)(C)N3 (stereo not shown) [Example 443, 10-Methoxy-9-(cyclohexylaminocarbonyl)-oxy-5-(3-propenyl)-2,2,4-trimethyl-1H-2,5-dihydro-[1]benzopyrano[3,4-f]quinoline] | – | – | – | ≥ 10000 | 63.5 |
| COc1c(O)ccc2c1-c1ccc3c(c1C(c1ccsc1)O2)C(C)=CC(C)(C)N3 (stereo not shown) [Example 444, 2,5-Dihydro-9-hydroxy-10-methoxy-2,2,4-trimethyl-5-(3-thienyl)-1H-[1]benzopyrano[3,4-f]quinoline] | 406 | – | 1.6 | – | – |
| COc1c(O)ccc2c1-c1ccc3c(c1C(Cc1ccc(F)cc1)O2)C(C)=CC(C)(C)N3 (stereo not shown) [Example 445, 2,5-Dihydro-9-hydroxy-10-methoxy-2,2,4-trimethyl-5-(4-(fluorophenyl)methyl)-1H-[1]benzopyrano[3,4-f]quinoline] | 3470 | – | 4 | – | – |
| (+/−)2,5-Dihydro-9-hydroxy-10-methoxy-2,2,4-trimethyl-5(S)-(3(S)-1-hydroxymethylcyclopenten-3-yl)-1H-[1]benzopyrano[3,4-f]quinoline [Example 270] | – | – | – | 4760 | 0.66 |
| O-[3-(2,5-Dihydro-10-methoxy-2,2,4-trimethyl-1H-[1]benzopyrano[3,4-f]quinolin-5-yl)phenyl]ester [Example 102] | ≥ 10000 | – | 17.7 | – | – |
